Measurements as given in US12180193B2, “Accelerating fibrosarcoma protein degrading compounds and associated methods of use” (Arvinas Operations, Inc., priority 2020, dated 2024).

Legend:
[1] = target: T1, BRAF G466V (Homo sapiens, UniProt P15056, G466V); assay: Cellular assay of target protein degradation, T-Rex 293 cells stably transfected with HA-BRAF G466V (HA immunofluorescence, high content imaging); type: cell-based; settings: T-Rex 293 HA-BRAF G466V; for DC50: half maximal degradation, read-out: BRaf G466V DC50; for Dmax: maximum degradation observed
T1 construct: expressed in transfected cells
T1 sequence (P15056 whole entry G466V): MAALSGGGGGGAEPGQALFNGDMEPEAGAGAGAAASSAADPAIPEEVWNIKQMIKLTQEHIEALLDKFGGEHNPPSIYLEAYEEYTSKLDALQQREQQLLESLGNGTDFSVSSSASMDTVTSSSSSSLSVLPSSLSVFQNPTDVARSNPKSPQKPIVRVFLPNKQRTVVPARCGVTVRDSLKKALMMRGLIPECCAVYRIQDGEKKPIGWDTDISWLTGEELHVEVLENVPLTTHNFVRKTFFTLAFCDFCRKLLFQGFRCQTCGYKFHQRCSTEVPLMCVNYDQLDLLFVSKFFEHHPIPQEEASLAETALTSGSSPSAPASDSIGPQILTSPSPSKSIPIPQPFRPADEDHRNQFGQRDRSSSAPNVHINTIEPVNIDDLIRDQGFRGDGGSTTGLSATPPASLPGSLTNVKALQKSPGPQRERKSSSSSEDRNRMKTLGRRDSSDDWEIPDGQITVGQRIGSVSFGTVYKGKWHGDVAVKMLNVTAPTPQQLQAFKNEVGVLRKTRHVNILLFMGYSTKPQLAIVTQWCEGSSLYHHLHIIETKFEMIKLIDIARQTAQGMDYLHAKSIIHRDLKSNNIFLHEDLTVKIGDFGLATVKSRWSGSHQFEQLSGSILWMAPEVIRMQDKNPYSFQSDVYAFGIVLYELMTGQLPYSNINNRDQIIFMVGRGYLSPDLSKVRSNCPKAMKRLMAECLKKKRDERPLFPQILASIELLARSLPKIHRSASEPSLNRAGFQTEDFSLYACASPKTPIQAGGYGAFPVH
How it was run: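 Read-out is HA immunofluorescence by high content imaging, with Hoechst and phalloidin co-staining, giving DC50 and Dmax as a percentage of control. Compound exposure lasts 24 hours at 37° C over 30 nM to 3 pM in 0.1% DMSO, with doxycycline-induced HA-BRAF G466V.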

[2] = target: T2, BRAF V600E (Homo sapiens, UniProt P15056, V600E); assay: Cellular assay of target protein degradation, T-Rex 293 cells stably transfected with HA-BRAF_V600E (HA immunofluorescence, high content imaging); type: cell-based; settings: T-Rex 293 HA-BRAF V600E; for DC50: half maximal degradation, read-out: BRaf V600E DC50; for Dmax: maximum degradation observed
T2 construct: expressed in transfected cells
T2 sequence (P15056 whole entry V600E): as the sequence (P15056 whole entry G466V) above, with V466G, V600E counted along it
How it was run: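 Cells are plated with 1 ng/mL doxycycline and grown 24 h. Compound is then added (final 1 μM–0.1 nM, 0.1% DMSO) for another 24 h at 37 °C, followed by fixing, HA immunostaining and imaging to obtain DC50 and Dmax.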

SMILES	DC50 [1]	Dmax [1]	DC50 [2]	Dmax [2]
O=C1CC[C@@H](N2Cc3cc(C[C@@H](O)CN4CCC(c5ccc(-c6cnc7[nH]cc(C(=O)c8c(F)ccc(NS(=O)(=O)N9CC[C@@H](F)C9)c8F)c7c6)cc5)CC4)ccc3C2=O)C(=O)N1 [Compound 108, (3R)-N-{3-[5-(4-{1-[(2R)-3-{2-[(3R)-2,6-dioxopiperidin-3-yl]-1-oxo-2,3-dihydro-1H-isoindol-5-yl}-2-hydroxypropyl]piperidin-4-yl}phenyl)-1H-pyrrolo[2,3-b]pyridine-3-carbonyl]-2,4-difluorophenyl}-3-fluoropyrrolidine-1-sulfonamide]	1 to 10 nM	> 70%	5 to 50 nM	35 to 70%
O=C1CC[C@H](N2Cc3cc(C[C@H](O)CN4CCC(c5ccc(-c6cnc7[nH]cc(C(=O)c8c(F)ccc(NS(=O)(=O)N9CC[C@@H](F)C9)c8F)c7c6)cc5)CC4)ccc3C2=O)C(=O)N1 [Compound 109, (3R)-N-{3-[5-(4-{1-[(2S)-3-{2-[(3S)-2,6-dioxopiperidin-3-yl]-1-oxo-2,3-dihydro-1H-isoindol-5-yl}-2-hydroxypropyl]piperidin-4-yl}phenyl)-1H-pyrrolo[2,3-b]pyridine-3-carbonyl]-2,4-difluorophenyl}-3-fluoropyrrolidine-1-sulfonamide]	1 to 10 nM	> 70%	5 to 50 nM	35 to 70%
O=C1CCC(N2Cc3cc(C4CCN(C[C@H](O)Cc5ccc(-c6cnc7[nH]cc(C(=O)c8c(F)ccc(NS(=O)(=O)N9CC[C@@H](F)C9)c8F)c7c6)cc5)CC4)ccc3C2=O)C(=O)N1 (stereo partly drawn) [Compound 110, (3R)-N-[3-(5-{4-[(2R)-3-{4-[2-(2,6-dioxopiperidin-3-yl)-1-oxo-2,3-dihydro-1H-isoindol-5-yl]piperidin-1-yl}-2-hydroxypropyl]phenyl}-1H-pyrrolo[2,3-b]pyridine-3-carbonyl)-2,4-difluorophenyl]-3-fluoropyrrolidine-1-sulfonamide]	1 to 10 nM	> 70%	50 to 500 nM	35 to 70%
O=C1CCC(N2Cc3cc(N4CCC(CN5CC6(CCN(c7ccc(-c8cnc9[nH]cc(C(=O)c%10c(F)ccc(NS(=O)(=O)N%11CC[C@@H](F)C%11)c%10F)c9c8)cc7F)C6)C5)CC4)ccc3C2=O)C(=O)N1 (stereo partly drawn) [Compound 111, (3R)-N-[3-(5-{4-[2-({1-[2-(2,6-dioxopiperidin-3-yl)-1-oxo-2,3-dihydro-1H-isoindol-5-yl]piperidin-4-yl}methyl) 2,6-diazaspiro[3.4]octan-6-yl]-3-fluorophenyl}-1H-pyrrolo[2,3-b]pyridine-3-carbonyl)-2,4-difluorophenyl]-3-fluoropyrrolidine-1-sulfonamide]	1 to 10 nM	35 to 70%	< 5 nM	35 to 70%
O=C1CCC(N2Cc3cc(CN4CCN(c5ccc(-c6cnc7[nH]cc(C(=O)c8c(F)ccc(NS(=O)(=O)N9CC[C@@H](F)C9)c8F)c7c6)cc5)C[C@H]4CO)ccc3C2=O)C(=O)N1 (stereo partly drawn) [Compound 112, (3R)-N-[3-(5-{4-[(3S)-4-{[2-(2,6-dioxopiperidin-3-yl)-1-oxo-2,3-dihydro-1H-isoindol-5-yl]methyl}-3-(hydroxymethyl)piperazin-1-yl]phenyl}-1H-pyrrolo [2,3-b]pyridine-3-carbonyl)-2,4-difluorophenyl]-3-fluoropyrrolidine-1-sulfonamide]	10 to 30 nM	35 to 70%	50 to 500 nM	< 35%
O=C1CCC(N2Cc3cc(OCCCCN4CCN(c5ccc(-c6cnc7[nH]cc(C(=O)c8c(F)ccc(NS(=O)(=O)N9CC[C@@H](F)C9)c8F)c7c6)cc5F)CC4)ccc3C2=O)C(=O)N1 (stereo partly drawn) [Compound 113, (3R)-N-[3-(5-{4-[4-(4-{[2-(2,6-dioxopiperidin-3-yl)-1-oxo-2,3-dihydro-1H-isoindol-5-yl]oxy}butyl)piperazin-1-yl]-3-fluorophenyl}-1H-pyrrolo[2,3-b]pyridine-3-carbonyl)-2,4-difluorophenyl]-3-fluoropyrrolidine-1-sulfonamide]	1 to 10 nM	> 70%	5 to 50 nM	35 to 70%
O=C1CCC(N2Cc3cc(N4CC5(CN(CCOc6ccc(-c7cnc8[nH]cc(C(=O)c9c(F)ccc(NS(=O)(=O)N%10CC[C@@H](F)C%10)c9F)c8c7)cc6F)C5)C4)ccc3C2=O)C(=O)N1 (stereo partly drawn) [Compound 114, (3R)-N-(3-{5-[4-(2-{6-[2-(2,6-dioxopiperidin-3-yl)-1-oxo-2,3-dihydro-1H-isoindol-5-yl]-2,6-diazaspiro[3.3]heptan-2-yl}ethoxy)-3-fluorophenyl]-1H-pyrrolo[2,3-b]pyridine-3-carbonyl}-2,4-difluorophenyl)-3-fluoropyrrolidine-1-sulfonamide]	1 to 10 nM	> 70%	5 to 50 nM	35 to 70%
O=C1CCC(N2Cc3cc(N4CCN(c5cc(N6CCN(c7ccc(-c8cnc9[nH]cc(C(=O)c%10c(F)ccc(NS(=O)(=O)N%11CC[C@@H](F)C%11)c%10F)c9c8)cc7)CC6)ncn5)CC4)ccc3C2=O)C(=O)N1 (stereo partly drawn) [Compound 115, (3R)-N-[3-(5-{4-[4-(6-{4-[2-(2,6-dioxopiperidin-3-yl)-1-oxo-2,3-dihydro-1H-isoindol-5-yl]piperazin-1-yl}pyrimidin-4-yl)piperazin-1-yl]phenyl}-1H-pyrrolo[2,3-b]pyridine-3-carbonyl)-2,4-difluorophenyl]-3-fluoropyrrolidine-1-sulfonamide]	1 to 10 nM	35 to 70%	5 to 50 nM	< 35%
O=C1CC[C@@H](N2Cc3cc(C[C@H](O)CN4CCC(c5ccc(-c6cnc7[nH]cc(C(=O)c8c(F)ccc(NS(=O)(=O)N9CC[C@@H](F)C9)c8F)c7c6)cc5)CC4)ccc3C2=O)C(=O)N1 [Compound 116, (3R)-N-{3-[5-(4-{1-[(2S)-3-{2-[(3R)-2,6-dioxopiperidin-3-yl]-1-oxo-2,3-dihydro-1H-isoindol-5-yl}-2-hydroxypropyl]piperidin-4-yl}phenyl)-1H-pyrrolo[2,3-b]pyridine-3-carbonyl]-2,4-difluorophenyl}-3-fluoropyrrolidine-1-sulfonamide]	< 1 nM	35 to 70%	5 to 50 nM	35 to 70%
O=C1CCC(N2Cc3cc(N4CC5(CN(CCOc6ncc(-c7cnc8[nH]cc(C(=O)c9c(F)ccc(NS(=O)(=O)N%10CC[C@@H](F)C%10)c9F)c8c7)cn6)C5)C4)ccc3C2=O)C(=O)N1 (stereo partly drawn) [Compound 117, (3R)-N-(3-{5-[2-(2-{6-[2-(2,6-dioxopiperidin-3-yl)-1-oxo-2,3-dihydro-1H-isoindol-5-yl]-2,6-diazaspiro[3.3]heptan-2-yl}ethoxy)pyrimidin-5-yl]-1H-pyrrolo [2,3-b]pyridine-3-carbonyl}-2,4-difluorophenyl)-3-fluoropyrrolidine-1-sulfonamide]	1 to 10 nM	> 70%	50 to 500 nM	35 to 70%
O=C1CCC(N2Cc3cc(C4CCN(C[C@@H](O)Cc5ccc(-c6cnc7[nH]cc(C(=O)c8c(F)ccc(NS(=O)(=O)N9CC[C@@H](F)C9)c8F)c7c6)cc5)CC4)ccc3C2=O)C(=O)N1 (stereo partly drawn) [Compound 118, (3R)-N-[3-(5-{4-[(2S)-3-{4-[2-(2,6-dioxopiperidin-3-yl)-1-oxo-2,3-dihydro-1H-isoindol-5-yl]piperidin-1-yl}-2-hydroxypropyl]phenyl}-1H-pyrrolo[2,3-b]pyridine-3-carbonyl)-2,4-difluorophenyl]-3-fluoropyrrolidine-1-sulfonamide]	1 to 10 nM	> 70%	> 500 nM	> 70%
O=C1CCC(N2Cc3cc(C4CCN(CC5(O)CCN(c6ccc(-c7cnc8[nH]cc(C(=O)c9c(F)ccc(NS(=O)(=O)N%10CC[C@@H](F)C%10)c9F)c8c7)cc6)CC5)CC4)ccc3C2=O)C(=O)N1 (stereo partly drawn) [Compound 119, (3R)-N-[3-(5-{4-[4-({4-[2-(2,6-dioxopiperidin-3-yl)-1-oxo-2,3-dihydro-1H-isoindol-5-yl]piperidin-1-yl}methyl)-4-hydroxypiperidin-1-yl]phenyl}-1H-pyrrolo[2,3-b]pyridine-3-carbonyl)-2,4-difluorophenyl]-3-fluoropyrrolidine-1-sulfonamide]	< 1 nM	35 to 70%	< 5 nM	35 to 70%
O=C1CCC(N2Cc3cc(OCCCCN4CCN(c5ccc(-c6cnc7[nH]cc(C(=O)c8c(F)ccc(NS(=O)(=O)N9CC[C@@H](F)C9)c8F)c7c6)cn5)CC4)ccc3C2=O)C(=O)N1 (stereo partly drawn) [Compound 120, (3R)-N-[3-(5-{6-[4-(4-{[2-(2,6-dioxopiperidin-3-yl)-1-oxo-2,3-dihydro-1H-isoindol-5-yl]oxy}butyl)piperazin-1-yl]pyridin-3-yl}-1H-pyrrolo[2,3-b]pyridine-3-carbonyl)-2,4-difluorophenyl]-3-fluoropyrrolidine-1-sulfonamide]	1 to 10 nM	> 70%	5 to 50 nM	35 to 70%
O=C1CCC(N2Cc3cc(OCCCCN4CCN(c5ncc(-c6cnc7[nH]cc(C(=O)c8c(F)ccc(NS(=O)(=O)N9CC[C@@H](F)C9)c8F)c7c6)cn5)CC4)ccc3C2=O)C(=O)N1 (stereo partly drawn) [Compound 121, (3R)-N-[3-(5-{2-[4-(4-{[2-(2,6-dioxopiperidin-3-yl)-1-oxo-2,3-dihydro-1H-isoindol-5-yl]oxy}butyl)piperazin-1-yl]pyrimidin-5-yl}-1H-pyrrolo[2,3-b]pyridine-3-carbonyl)-2,4-difluorophenyl]-3-fluoropyrrolidine-1-sulfonamide]	1 to 10 nM	> 70%	5 to 50 nM	35 to 70%
